Assay results: patent publication US8377945B2, “Small molecule inhibitors of spleen tyrosine kinase (SYK)” (Rigel Pharmaceuticals Inc., priority 2009, dated 2013)
pIC50: −log10 of the molar value.

Legend:
[1] = tested on: Human mast cells (CHMC cells); experiment: Tryptase release assay (mast cell degranulation induced by anti-IgG FcγR cross-linking); format: cell-based; conditions: IC50 of tryptase release from human mast cells after anti-IgG stimulation, read-out: LD Tryptase
Method: Compounds were assayed for inhibition of mast cell activation induced by FcγR cross-linking by measuring the activity of tryptase released upon degranulation as follows:
Human mast cells were cultured and differentiated from […] progenitor cell as described in U.S. Patent Publication No. 2005-234049, incorporated herein by reference. For example, 65 μl of various concentrations of the compound to be assayed were prepared in MT (137 mM NaCl, 2.7 mM KCl, 1.8 mM CaCl2, 1.0 mM MgCl2, 5.6 mM Glucose, 20 mM Hepes (pH 7.4), 0.1% Bovine Serum Albumin, (Sigma A4503)) containing 2% MeOH and 1% DMSO, or control buffer were added to duplicate 96-well V-bottom plates. Pelleted and resuspended (in warm MT) CHMC cells (65 μl) were added to each 96-well plate, mixed and incubated for 1 hour at 37° C. 25 μl of 6× anti-IgG Rabbit anti-human IgG, Affinity purified (Bethyl Laboratories Cat No. A80-105A3) final concentration 1 μg/ml, was added to the test wells. MT (25 μl) was added to control wells. After a 60-minute incubation at 37° C., cells and cell debris were pelleted by centrifugation at 1000 rpm for 10 min and tryptase and leukotriene C4 levels were measured.
To measure tryptase levels, 25 μl of supernatant from each well was transferred to a fresh 96-well black bottom plate, to which 100 μl of fresh tryptase substrate solution [(Z-Ala-Lys-Arg-AMC2TFA; Enzyme Systems Products, #AMC-246)] 1:2000 in tryptase assay buffer [0.1 M Hepes (pH 7.5), 10% w/v Glycerol, 10 μM Heparin (Sigma H-4898) 0.01% NaN3] was added. After 30 minute incubation at room temperature, the optical density of the plates is measured at 355 nm/460 nm on a spectrophotometric plate reader. Table 2 provides the IC50 values.

[2] = biological target: T1, Syk kinase (Homo sapiens, UniProt P43405); experiment: ELISA-based Syk kinase assay (phosphorylation of HS1 peptide substrate by isolated Syk kinase); format: biochemical; conditions: IC50 of Syk kinase inhibition; 2 μM ATP, 2 μM peptide substrate
T1 construct: purchased Millipore 14-314
Method: Compounds were tested for the ability to inhibit Syk kinase catalyzed phosphorylation of a peptide substrate in an assay with isolated Syk kinase.
An assay was carried out in a Costar white 96 well plate (Fisher Scientific, Cat No. 07-200-591) coated overnight with 0.01 mg/ml Neutravidin (Pierce, 100 μl/well) at 4° C. Neutravidin pre-coated 96 well plates were blocked with 2% BSA in PBST buffer for at least 1 hour before starting the assay at room temperature. Serially diluted compound stock solution containing a subject compound was prepared separately in DMSO solution starting from 300 μM and 2 μl of this diluted compound (3% DMSO final concentration) was added directly to neutravidin coated assay plate containing 55.5 μl/well of kinase reaction buffer composed of 20 mM HEPES, pH 7.4, 5 mM MgCl2, 2 mM MnCl2, 1 mM DTT, 0.01% Tween 20 pre-mixed with ATP and kinase substrate (HS1 peptide). Reaction was initiated by adding of 2.5 μl/well Syk kinase (Millipore, Cat No. 14-314) resulting in a final reaction volume of 60 μl and then the reaction was allowed to continue for 30 minutes at room temperature. Final enzyme reaction conditions were 20 mM HEPES, pH 7.4, 5 mM MgCl2, 2 mM MnCl2, 1 mM DTT, 0.01% Tween 20, 0.25 ng Syk, 2 μM ATP, 2 μM peptide substrate (Biotin-EQEDEPEGDYEEVLE-CONH2, SynPep Corporation). After completing the reaction, assay plate was washed three times with PBST and incubated for 1 hour at room temperature with 100 μl/well of phosphopeptide detection antibody solution prepared by mixing 1-1000 diluted mouse anti-pTyr monoclonal antibody (Cell Signal Technology, Cat No. 9411) and 1-1000 diluted goat HRP-conjugated anti-mouse IgG (Jackson Immunoresearch, Cat. No. 115-035-003). Before developing the plate with supersignal ELISA pico chemiluminescent substrate (Pierce), plate was washed three times again with PBST and were read on a SpectraMax M5 microplate reader (Moleculear Devices).

Row | SMILES | pIC50 [1] | pIC50 [2]
1 | COc1ccc(Nc2c(-c3ccc(NC(C)=O)cc3)[nH]c3c(C#N)cnn23)cc1OC [Compound 2] | > 5.00 | 5.52 to 6.29
2 | CC(=O)Nc1ccc(-c2[nH]c3c(C#N)cnn3c2Nc2cccc(C(F)(F)F)c2)cc1 [Compound 3] | 4.00 to 4.96 | 5.52 to 6.29
3 | COc1ccc2[nH]cc(-c3[nH]c4c(C#N)cnn4c3Nc3ccc(OC)c(OC)c3)c2c1 [Compound 4] | > 5.00 | 5.52 to 6.29
4 | COc1ccc(Nc2c(-c3ccc4[nH]ccc4c3)[nH]c3c(C#N)cnn23)cc1OC [Compound 5] | > 5.00 | 5.52 to 6.29
5 | COc1ccc(Nc2c(-c3ccc4cc[nH]c4c3)[nH]c3c(C#N)cnn23)cc1OC [Compound 6] | > 5.00 | 5.52 to 6.29
6 | COc1ccc(Nc2c(-c3ccc(Oc4ccccc4)cc3)[nH]c3c(C#N)cnn23)cc1OC [Compound 8] | > 5.00 | 4.60 to 5.52
7 | COC(=O)c1cccc(Nc2c(-c3ccc4c(c3)NC(=O)CO4)[nH]c3c(C#N)cnn23)c1 [Compound 10] | 4.00 to 4.96 | 5.52 to 6.29
8 | COc1cccc(Nc2c(-c3cc(OC)c(OC)c(OC)c3)[nH]c3c(C#N)cnn23)c1 [Compound 14] | > 5.00 | 5.52 to 6.29
9 | COc1cc(-c2[nH]c3c(C#N)cnn3c2Nc2ccc(Br)cc2)cc(OC)c1OC [Compound 23] | > 5.00 | 5.52 to 6.29
10 | COc1ccc2c(-c3[nH]c4c(C#N)cnn4c3Nc3ccc(OC)c(OC)c3)c[nH]c2c1 [Compound 24] | > 5.00 | 5.52 to 6.29
11 | COc1cc(-c2[nH]c3c(C#N)cnn3c2Nc2ccc(N3CCOCC3)cc2)cc(OC)c1OC [Compound 25] | > 5.00 | 5.52 to 6.29
12 | COc1ccc(Nc2c(-c3cc(OC)c(OC)c(OC)c3)[nH]c3c(C#N)cnn23)cc1OC [Compound 28] | > 5.00 | > 6.30
13 | COc1cc(-c2[nH]c3c(C#N)cnn3c2Nc2cccc(NC(C)=O)c2)cc(OC)c1OC [Compound 30] | > 5.00 | 5.52 to 6.29
14 | COc1ccc(-c2[nH]c3c(C#N)cnn3c2Nc2cccc(NC(C)=O)c2)cc1OC [Compound 32] | > 5.00 | 5.52 to 6.29

Other lines, results leading:

Row | pIC50 [1] | pIC50 [2] | SMILES
15 | > 5.00 | 5.52 to 6.29 | CSc1ccc(-c2[nH]c3c(C#N)cnn3c2Nc2cccc(NC(C)=O)c2)cc1 [Compound 33]
16 | < 2.30 | 5.52 to 6.29 | COc1ccc(Nc2c(-c3ccc4c(c3)OCCO4)[nH]c3c(C#N)cnn23)cc1OC [Compound 38]
17 | 4.00 to 4.96 | 4.60 to 5.52 | N#Cc1cnn2c(Nc3ccc(N4CCOCC4)cc3)c(-c3ccc4c(c3)NC(=O)CO4)[nH]c12 [Compound 43]
18 | > 5.00 | 4.60 to 5.52 | COc1cccc(Nc2c(-c3ccc4cc[nH]c4c3)[nH]c3c(C#N)cnn23)c1 [Compound 44]
19 | 2.30 to 4.00 | 5.52 to 6.29 | N#Cc1cnn2c(Nc3ccc(Br)cc3)c(-c3ccc4c(c3)NC(=O)CO4)[nH]c12 [Compound 45]
20 | > 5.00 | 5.52 to 6.29 | CC(=O)Nc1cccc(Nc2c(-c3ccc4cc[nH]c4c3)[nH]c3c(C#N)cnn23)c1 [Compound 47]
21 | > 5.00 | 5.52 to 6.29 | COc1ccc(Nc2c(-c3ccc(S(C)(=O)=O)cc3)[nH]c3c(C#N)cnn23)cc1OC [Compound 48]
22 | > 5.00 | 5.52 to 6.29 | COc1cc(-c2[nH]c3c(C#N)cnn3c2Nc2ccc3c(c2)OCCO3)cc(OC)c1OC [Compound 49]
23 | < 2.30 | 5.52 to 6.29 | N#Cc1cnn2c(Nc3ccc4c(c3)OCCO4)c(-c3ccc4c(c3)NC(=O)CO4)[nH]c12 [Compound 50]
24 | > 5.00 | 5.52 to 6.29 | COc1ccc(Nc2c(-c3ccc4c(c3)OCO4)[nH]c3c(C#N)cnn23)cc1OC [Compound 51]
25 | < 2.30 | 4.60 to 5.52 | COc1ccc(-c2[nH]c3c(C#N)cnn3c2Nc2ccc(OC)c(OC)c2)cc1F [Compound 52]
26 | > 5.00 | 5.52 to 6.29 | COc1cc(-c2[nH]c3c(C#N)cnn3c2Nc2ccc(F)c(F)c2)cc(OC)c1OC [Compound 64]
